Source: patent US7410975B2, “Small molecule toll-like receptor (TLR) antagonists” (Coley Pharmaceutical Group, Inc., priority 2003, dated 2008)

Target: T1, human TLR9 (hTLR9) (Homo sapiens, UniProt Q9NR96)
T1 construct: expressed in transfected cells
T1 sequence (Q9NR96 26-1032): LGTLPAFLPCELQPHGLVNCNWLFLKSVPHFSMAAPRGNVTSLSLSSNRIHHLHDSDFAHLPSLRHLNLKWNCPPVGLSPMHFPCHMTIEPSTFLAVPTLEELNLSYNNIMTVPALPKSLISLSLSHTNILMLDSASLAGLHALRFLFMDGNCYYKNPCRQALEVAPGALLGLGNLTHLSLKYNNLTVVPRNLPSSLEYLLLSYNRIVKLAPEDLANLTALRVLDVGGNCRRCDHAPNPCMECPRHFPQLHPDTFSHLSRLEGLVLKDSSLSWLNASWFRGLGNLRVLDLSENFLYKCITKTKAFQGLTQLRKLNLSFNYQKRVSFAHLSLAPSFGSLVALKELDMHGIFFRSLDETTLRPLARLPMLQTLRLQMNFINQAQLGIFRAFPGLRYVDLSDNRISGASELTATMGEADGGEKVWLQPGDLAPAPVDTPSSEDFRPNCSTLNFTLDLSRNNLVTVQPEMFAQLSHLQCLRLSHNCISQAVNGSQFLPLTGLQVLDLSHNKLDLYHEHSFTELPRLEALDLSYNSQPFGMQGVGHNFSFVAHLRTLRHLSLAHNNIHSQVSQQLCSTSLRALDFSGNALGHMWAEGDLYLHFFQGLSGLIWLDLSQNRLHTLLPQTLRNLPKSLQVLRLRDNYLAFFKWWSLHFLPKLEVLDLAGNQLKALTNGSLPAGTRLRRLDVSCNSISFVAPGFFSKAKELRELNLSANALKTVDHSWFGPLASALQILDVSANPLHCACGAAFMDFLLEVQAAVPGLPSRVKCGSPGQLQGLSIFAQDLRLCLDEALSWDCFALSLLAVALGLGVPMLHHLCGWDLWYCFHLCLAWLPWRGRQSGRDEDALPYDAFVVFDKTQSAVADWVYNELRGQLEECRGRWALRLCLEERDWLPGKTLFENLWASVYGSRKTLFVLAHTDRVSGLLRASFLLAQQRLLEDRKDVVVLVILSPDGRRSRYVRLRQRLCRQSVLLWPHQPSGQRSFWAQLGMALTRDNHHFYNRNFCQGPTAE
Experiment: Antagonist screen, hTLR9-NFκB-293 cells, 6× NF-κB-luciferase reporter, with EC50 of CpG ODN 2006
Format: cell-based
Conditions: for hTLR9 (inhibitory effect, antagonist score): compound at 0.5, 5, 50 μg/ml, EC50 concentration of CpG ODN 2006, 16 h, NF-κB-luciferase; for inhibition of TLR9 signaling in response to CpG ODN 2006 (FIG. 1): FIG. 1, graph
Experimental: Candidate small molecules for initial screening were obtained from a commercially available library of 880 off-patent small molecules selected for structural diversity and proven bioavailability in humans (Prestwick Chemical Library). […] Results were measured as fold induction over baseline luciferase activity measured in the absence of ODN 2006 and compared to fold induction over baseline in the presence of the EC50 concentration of ODN 2006 alone. […] Additional screening was performed in like manner using additional small molecules selected from another library or specifically prepared for this purpose.
The method is described in greater detail as follows. The cells for each individual cell clone (hTLR3-NFκB-293, hTLR7-NFκB-293, hTLR8-NFκB-293 and hTLR9-NFκB-293) were counted and seeded one day before the stimulation at 1.5×10^4 cells per well in 96-well cell culture plates. To become adherent the cells were incubated after seeding overnight at 37° C. in 5% CO2 humidified air.
The screen for each compound was performed at the same time for all of the receptors TLR3, TLR7, TLR8 and TLR9. Up to fifteen test compounds, each assayed in duplicate at each of three different final concentrations (0.5 μg/ml, 5 μg/ml, and 50 μg/ml), were used for 16 h cell stimulation on a single multiwell culture plate. A 4× final concentration master plate was created to prepare the different test compounds before they were added to the cells.
Controls were added as duplicates individually for each cell clone on the cell culture plate. Positive controls were used as follows (final concentrations): 50 μg/ml poly(I:C) for hTLR3-NFκB-293; 8 μM resiquimod (R848) for hTLR7-NFκB-293; 30 μM R848 for hTLR8-NFκB-293; and 2.5 μM CpG-ODN 2006 for hTLR9-NFκB-293. Media alone was used as negative control. After addition of controls and small molecules, the cell clones were additionally stimulated with the EC50 concentration of the appropriate receptor-specific ligand.
The mean value of wells H2 and H5 (each with cells and EC50 concentration of the appropriate receptor-specific ligand) divided by the mean of wells H3 and H6 (each with cells alone) yielded the baseline response (i.e., fold induction of luciferase activity) to EC50 concentration of the appropriate receptor-specific ligand.
After 16 h stimulation the supernatant was removed and the cells treated with lysis buffer and stored at −80° C. before measuring.
For each screen result a graphical documentation was performed.
The baseline result (measured with addition of the EC50 concentration of the receptor-specific ligand) for each cell culture plate was measured as described above. Antagonistic effects were measured by down regulation compared to the baseline. Antagonists were scored as follows: • 13: compounds for which there was clear down regulation at 0.5 μg/ml, 5 μg/ml, and 50 μg/ml; • 12: compounds for which there was clear down regulation at 5 μg/ml and 50 μg/ml; • 11: compounds for which there was clear down regulation only at 50 μg/ml; • —: compounds for which there was no clear down regulation even at 50 μg/ml. Agonists

| Compound | hTLR9 (inhibitory effect, antagonist score) | inhibition of TLR9 signaling in response to CpG ODN 2006 (FIG. 1) |
| --- | --- | --- |
| Cl.Cl.Fc1ccc(C(OCCN2CCN(CCCc3ccccc3)CC2)c2ccc(F)cc2)cc1 [compound 386, GBR 12909hydrochloride] | — (compounds for which there was no clear down regulation even at 50 μg/ml) |  |
| Nc1cccc2c1C(=O)c1cccc(N)c1C2=O [compound 413, Anthraquinone,1,5-diamino] | 13 (compounds for which there was clear down regulation at 0.5 μg/ml, 5 μg/ml, and 50 μg/ml) |  |
| CN1CCC2C(C1)c1ccccc1N2Cc1ccccc1 (stereo not drawn) [compound 455, Mebhydroline 1,5 naphtalenedisulfonate] | 12 (compounds for which there was clear down regulation at 5 μg/ml and 50 μg/ml) |  |
| Cc1cccc(CN2CCN(C(c3ccccc3)c3ccc(Cl)cc3)CC2)c1.Cl.Cl (stereo not drawn) [compound 457, Meclozinedihydrochioride] | 11 (compounds for which there was clear down regulation only at 50 μg/ml) |  |
| c1ccc2c(c1)[nH]c1cnccc12 [compound 470, norharman] | 11 (compounds for which there was clear down regulation only at 50 μg/ml) | concentration-dependent inhibition |
| CN(C)CC/C=C1/c2ccccc2CSc2ccccc21.Cl [compound 488, Dosulepin hydrochloride] | 12 (compounds for which there was clear down regulation at 5 μg/ml and 50 μg/ml) |  |
| CN1CCN(C(c2ccccc2)c2ccccc2)CC1.Cl [compound 510, Cyclizine hydrochloride] | 11 (compounds for which there was clear down regulation only at 50 μg/ml) |  |
| CN1CCCCC1CCN1c2ccccc2Sc2ccc([S+](C)[O-])cc21.O=S(=O)(O)c1ccccc1 (stereo not drawn) [compound 529, Mesoridazine besylate] | 11 (compounds for which there was clear down regulation only at 50 μg/ml) |  |
| CCOC(=O)Oc1c(OC)cc(C(=O)O[C@@H]2C[C@@H]3CN4CCc5c([nH]c6cc(OC)ccc56)[C@H]4C[C@@H]3[C@H](C(=O)OC)[C@H]2OC)cc1OC [compound 564, Syrosingopine] | 13 (compounds for which there was clear down regulation at 0.5 μg/ml, 5 μg/ml, and 50 μg/ml) |  |
| COC(=O)[C@H]1[C@H]2C[C@@H]3c4[nH]c5cc(OC)ccc5c4CCN3C[C@H]2C[C@@H](OC(=O)/C=C/c2cc(OC)c(OC)c(OC)c2)[C@@H]1OC [compound 568, Rescinnamin] | 12 (compounds for which there was clear down regulation at 5 μg/ml and 50 μg/ml) |  |
| CC(=O)c1ccc2c(c1)N(CCCN(C)C)c1ccccc1S2.O=C(O)/C=C\C(=O)O [compound 576, Acetopromazinemaleate salt] | 12 (compounds for which there was clear down regulation at 5 μg/ml and 50 μg/ml) |  |
| COC(=O)C1=CO[C@@H](C)[C@@H]2CN3CCc4c([nH]c5ccccc45)[C@@H]3C[C@H]12 [compound 593, Tetrahydroalstonine] | 11 (compounds for which there was clear down regulation only at 50 μg/ml) |  |
| CC[C@]12CCCN3CCc4c(n(c5ccccc45)C(=O)C1)[C@@H]32 [compound 607, Eburnamonine] | — (compounds for which there was no clear down regulation even at 50 μg/ml) |  |
| Cc1nccc2c1[nH]c1cc(O)ccc12.Cl [compound 612, Harmol hydrochloride monohydrate] | 12 (compounds for which there was clear down regulation at 5 μg/ml and 50 μg/ml) |  |
| COc1ccc2c(c1)[nH]c1c(C)nccc12.Cl [compound 613, harmine hydrochloride] | 13 (compounds for which there was clear down regulation at 0.5 μg/ml, 5 μg/ml, and 50 μg/ml) | concentration-dependent inhibition |
| Cc1c2ccncc2c(C)c2c1[nH]c1ccccc12 [compound 614, Ellipticine] | 13 (compounds for which there was clear down regulation at 0.5 μg/ml, 5 μg/ml, and 50 μg/ml) |  |
